In ChEMBL document CHEMBL4219259, “Molecular Determinants Conferring the Stoichiometric-Dependent Activity of α-Conotoxins at the Human α9α10 Nicotinic Acetylcholine Receptor Subtype” (J Med Chem, 2018):
Peptide text beside a SMILES is read from it.

Target: Neuronal acetylcholine receptor; alpha9/alpha10 (Homo sapiens, UniProt Q9GZZ6+Q9UGM1)
Assay: Inhibition of human alpha9/alpha10 nACHR (1:1) expressed in Xenopus laevis oocyte assessed as inhibition of ACh induced channel current measured for 2 to 5 days at -80 mV holding potential by two electrode voltage clamp method

Neuronal acetylcholine receptor; alpha9/alpha10, sequence (Q9UGM1 whole entry): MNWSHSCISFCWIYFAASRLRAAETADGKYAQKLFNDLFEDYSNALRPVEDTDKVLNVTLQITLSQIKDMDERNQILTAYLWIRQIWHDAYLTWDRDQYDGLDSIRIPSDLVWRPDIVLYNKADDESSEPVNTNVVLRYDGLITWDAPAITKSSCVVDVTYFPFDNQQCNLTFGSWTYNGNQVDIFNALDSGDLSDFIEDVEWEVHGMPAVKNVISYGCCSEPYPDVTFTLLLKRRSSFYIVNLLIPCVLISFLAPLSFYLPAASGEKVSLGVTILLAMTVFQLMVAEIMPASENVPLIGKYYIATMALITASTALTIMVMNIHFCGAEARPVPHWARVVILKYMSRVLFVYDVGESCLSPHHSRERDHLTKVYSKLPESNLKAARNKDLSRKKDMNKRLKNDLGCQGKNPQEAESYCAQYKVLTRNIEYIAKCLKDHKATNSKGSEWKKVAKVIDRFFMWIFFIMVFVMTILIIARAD
Neuronal acetylcholine receptor; alpha9/alpha10, sequence (Q9GZZ6 whole entry): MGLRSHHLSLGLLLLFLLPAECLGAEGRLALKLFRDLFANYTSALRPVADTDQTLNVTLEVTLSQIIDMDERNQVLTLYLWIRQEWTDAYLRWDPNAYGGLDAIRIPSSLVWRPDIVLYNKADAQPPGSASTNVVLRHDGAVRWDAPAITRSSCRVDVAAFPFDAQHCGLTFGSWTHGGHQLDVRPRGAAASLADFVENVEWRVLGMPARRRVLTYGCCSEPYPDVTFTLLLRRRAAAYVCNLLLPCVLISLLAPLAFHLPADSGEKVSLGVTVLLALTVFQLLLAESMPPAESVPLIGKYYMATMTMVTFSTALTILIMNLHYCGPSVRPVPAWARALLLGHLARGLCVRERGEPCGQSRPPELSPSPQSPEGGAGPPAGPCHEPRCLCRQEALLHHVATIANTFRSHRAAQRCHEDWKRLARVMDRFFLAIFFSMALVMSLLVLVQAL

Q: How did the IC50 turn out when CC(C)[C@@H]1NC(=O)[C@H](CO)NC(=O)[C@@H]2CSSC[C@H](NC(=O)CN)C(=O)N[C@@H](CSSC[C@@H](C(N)=O)NC(=O)[C@H](CCCCN)NC(=O)[C@H](CC(N)=O)NC(=O)[C@@H]3CCCN3C(=O)[C@H](Cc3ncc[nH]3)NC(=O)[C@H](CC(=O)O)NC1=O)C(=O)N[C@@H](CO)C(=O)N[C@@H](Cc1ncc[nH]1)C(=O)N1CCC[C@H]1C(=O)N[C@@H](C)C(=O)N2 (HELM PEPTIDE1{G.C.C.S.[O=C([C@H](Cc1ncc[nH]1)N[*:1])[*:2]].P.A.C.S.V.D.[O=C([C@H](Cc1ncc[nH]1)N[*:1])[*:2]].P.N.K.C.[am]}$PEPTIDE1,PEPTIDE1,2:R3-8:R3|PEPTIDE1,PEPTIDE1,3:R3-16:R3$$$V2.0) was run?
A: 22.2 µM
